“Also recorded” adds a separate entry of the source. Where a SMILES comes first, the peptide text is derived from it. Bridges are numbered along the chain shown (N, C = ends).
What was measured:
[1] = Pharmacokinetic study of ShSPI (plasma, LC-MS/MS); format: in vivo, mice; design: CI/F: unit not given here
Protocol: Each plasma sample was analyzed by LC-MS/MS, and the raw data were processed by DAS pharmacokinetic v2.1.1 software to obtain pharmacokinetic parameters (Table 3) and blood concentration–time curves (Figure 5).
Grouping and Sampling: SIPF grade Sprague Dawley (SD) healthy rats (male, procured from Hunan Slaughter King Laboratory Animal Co.) were randomly divided into three groups, with three rats in each group. All groups received a single administration of the ShSPI and were fasted for 12 h prior to dosing. The groups included two inhalation groups (1 mg/kg and 2 mg/kg) and an intravenous tail vein injection group (1 mg/kg). Blood samples were collected from the subclavian vein at 5 min, 15 min, 30 min, 1 h, 2 h, 4 h, 8 h, and 24 h post-dosing. A 0.2 mL blood sample was transferred into pre-labeled EDTA-2K anticoagulant tubes and gently inverted to ensure thorough mixing of the anticoagulant with the blood. Samples were immediately placed on ice. Plasma was separated within 1 h by centrifugation at 6800 rpm for 5 min at 4 °C. The supernatant was collected and stored at −20 °C until analysis.
Sample Preparation Before Analysis: Sample preparation was conducted under yellow light in an ice-water bath. For each analysis, 30 μL of standard or experimental sample was mixed with 200 μL of working solution, while blank samples were prepared with an equivalent volume of methanol. The mixture was vortexed thoroughly and centrifuged at 5500 rpm for 10 min. A 150 μL aliquot of the supernatant was mixed with 150 μL of ultrapure water, and the final mixture was subjected to analysis.
Chromatographic and Mass Spectrometry Conditions: Chromatographic separation was performed using an AQ C18 column (2.1 × 50 mm, 5.0 μm). The injection volume was 10 μL. The mobile phase consisted of 0.1% formic acid in water (A) and methanol (B), with the following gradient program: 10% B at 0–0.01 min, 98% B at 0.01–1.8 min, 98% B at 1.8–2.5 min, and 10% B at 2.5–3.0 min. The flow rate was set at 0.6 mL/min. Mass spectrometry analysis was performed using an electrospray ionization (ESI) source in multiple reaction monitoring (MRM) mode.

ICR healthy mice = assay: Single administration toxicity study: hematological examination; format: in vivo; conditions: single airway spray, day 14 post-dose, EDTA whole blood, automated hematology analyzer, mean ± s
Protocol: Specific pathogen-free (SIPF) grade ICR healthy mice (with an equal number of males and females, procured from Hunan Slaughter King Laboratory Animal Co., Changsha, China) were randomly divided into four experimental groups and received ShSPI via airway spray at doses of 0 mg/kg (control), 40 mg/kg, 80 mg/kg, or 160 mg/kg in a single administration. Following treatment, the mice were monitored for a 14-day observation period. On the fourteenth day, blood plasma samples were collected for precise measurement and analysis of hematological and biochemical parameters. The specific process is as follows.
On day 14 post-dose, approximately 1.7–2.0 mL of whole blood was collected for hematological and biochemical analyses. Hematological parameters were assessed using an automated hematology analyzer, while biochemical parameters were evaluated with an automated biochemistry analyzer. Prior to blood collection, all mice were fasted for at least 12 h. For hematological analysis, 200 μL of whole blood was immediately transferred into EDTA-containing tubes. For biochemical analysis, 1.5 mL of whole blood was placed into serum separator tubes without anticoagulant and centrifuged to isolate serum.

[2] = male, Sprague Dawley, inhaled or intranasal, 1 mg/kg ShSPI, single inhalation, plasma, LC-MS/MS, DAS software, mean ± s, n = 3, method SD rats
[3] = male, Sprague Dawley, inhaled or intranasal, 2 mg/kg ShSPI, single inhalation, plasma, LC-MS/MS, DAS software, mean ± s, n = 3, method SD rats

CC[C@H](C)[C@@H]1NC(=O)[C@H](C)NC(=O)[C@@H]2CCCN2C(=O)[C@@H]2CSSC[C@H](NC(=O)[C@H](CO)NC(=O)[C@H](CC(N)=O)NC(=O)[C@H](CO)NC(=O)[C@H](Cc3ccc(O)cc3)NC(=O)[C@H](CCSC)NC(=O)[C@H](CCCNC(=N)N)NC(=O)CNC(=O)[C@H](Cc3ccccc3)NC(=O)[C@H](CCC(=O)O)NC(=O)[C@H](CC(=O)O)NC(=O)[C@H](Cc3ccccc3)NC(=O)[C@H](C(C)C)NC(=O)[C@@H]3CCCN3C(=O)[C@H](CCC(N)=O)NC(=O)[C@H](Cc3ccc(O)cc3)NC1=O)C(=O)N[C@@H](CCC(=O)O)C(=O)N[C@@H](CCSC)C(=O)N[C@@H](CCC(N)=O)C(=O)N[C@@H](CCCNC(=N)N)C(=O)N[C@@H](C)C(=O)N[C@@H](CCCNC(=N)N)C(=O)N[C@H](C(=O)N[C@@H](CC(C)C)C(=O)N[C@@H](CCCNC(=N)N)C(=O)NCC(=O)O)CSSC[C@H](N)C(=O)N1CCC[C@H]1C(=O)N[C@@H](CCC(N)=O)C(=O)N[C@@H](C(C)C)C(=O)N2 [ShSPI] (H-CPQVCPAIYQPVFDEFGRMYSNSCEMQRARCLRG-OH; disulfide 1-31, 5-24; N-terminus and C-terminus assumed)
CI/F ([1]; 2 mg/kg ShSPI, single inhalation, plasma, LC-MS/MS, DAS software, mean ± s, n = 3, table says mice, method SD rats): 29.00 ± 11.90 | detectability in vivo (plasma) at 8 h post-administration ([1]; inhalation, doses of 1 mg/kg and 2 mg/kg, 8 h post-administration, LC-MS/MS): detected; also recorded: detectable | detectability in vivo (plasma) at 24 h post-administration ([1]; inhalation, doses of 1 mg/kg and 2 mg/kg, 24 h post-administration, LC-MS/MS): no longer detectable | AUC(0-t) [1, 2]: 580 ± 294 ng·h/mL | Cmax [1, 2]: 188 ± 64.4 ng/mL | MRT [1, 2]: 2.86 ± 0.725 h | Tmax ([1]; male, Sprague Dawley, inhaled or intranasal, 1 mg/kg ShSPI, single inhalation, plasma, LC-MS/MS, DAS software, n = 3, method SD rats): 1 h | AUC(0-inf) [1, 3]: 1260 ± 422 ng·h/mL | AUC(0-t) [1, 3]: 1170 ± 415 ng·h/mL | Cmax [1, 3]: 347 ± 151 ng/mL | MRT [1, 3]: 3.1 ± 0.898 h | half-life [1, 3]: 2.14 ± 0.663 h | Tmax ([1]; male, Sprague Dawley, inhaled or intranasal, 2 mg/kg ShSPI, single inhalation, plasma, LC-MS/MS, DAS software, n = 3, method SD rats): 1 h | overall metabolism in mice ([1]; overall assessment in words): moderate | Bas (ICR healthy mice; 40 mg/kg ShSPI, n = 6): 0.02 ± 0.01 10^9/L | Bas% (ICR healthy mice; 40 mg/kg ShSPI, n = 6): 0.35 ± 0.28% | Eos (ICR healthy mice; 40 mg/kg ShSPI, n = 6): 0.09 ± 0.05 10^9/L | HCT (ICR healthy mice; 40 mg/kg ShSPI, n = 6): 36.98 ± 1.32% | HGB (ICR healthy mice; 40 mg/kg ShSPI, n = 6): 123.50 ± 5.64 g/L | Lym (ICR healthy mice; 40 mg/kg ShSPI, n = 6): 6.40 ± 2.49 10^9/L | Lym% (ICR healthy mice; 40 mg/kg ShSPI, n = 6): 78.20 ± 2.18% | MCH (ICR healthy mice; 40 mg/kg ShSPI, n = 6): 15.86 ± 0.43 pg | MCHC (ICR healthy mice; 40 mg/kg ShSPI, n = 6): 333.50 ± 3.98 g/L | MCV (ICR healthy mice; 40 mg/kg ShSPI, n = 6): 47.56 ± 0.95 fL | MPV (ICR healthy mice; 40 mg/kg ShSPI, n = 6): 5.35 ± 0.18 fL | Mon (ICR healthy mice; 40 mg/kg ShSPI, n = 6): 0.28 ± 0.13 10^9/L | Mon% (ICR healthy mice; 40 mg/kg ShSPI, n = 6): 3.35 ± 0.74% | Neu (ICR healthy mice; 40 mg/kg ShSPI, n = 6): 1.41 ± 0.69 10^9/L | Neu% (ICR healthy mice; 40 mg/kg ShSPI, n = 6): 16.78 ± 1.90% | PCT (ICR healthy mice; 40 mg/kg ShSPI, n = 6): 0.71 ± 0.04% | PDW (ICR healthy mice; 40 mg/kg ShSPI, n = 6): 15.21 ± 0.17 | PLT (ICR healthy mice; 40 mg/kg ShSPI, n = 6): 1326.50 ± 494.34 10^9/L | RBC (ICR healthy mice; 40 mg/kg ShSPI, n = 6): 7.78 ± 0.23 10^12/L | RDW-CV (ICR healthy mice; 40 mg/kg ShSPI, n = 6): 12.70 ± 0.76% | RDW-SD (ICR healthy mice; 40 mg/kg ShSPI, n = 6): 26.68 ± 1.26 fL | WBC (ICR healthy mice; 40 mg/kg ShSPI, n = 6): 8.22 ± 3.30 10^9/L | Bas (ICR healthy mice; 80 mg/kg ShSPI, n = 6): 0.03 ± 0.04 10^9/L | Bas% (ICR healthy mice; 80 mg/kg ShSPI, n = 6): 0.56 ± 0.60% | Eos (ICR healthy mice; 80 mg/kg ShSPI, n = 6): 0.22 ± 0.20 10^9/L | Eos% (ICR healthy mice; 80 mg/kg ShSPI, n = 6): 3.10 ± 2.15% | HCT (ICR healthy mice; 80 mg/kg ShSPI, n = 6): 35.93 ± 2.11% | HGB (ICR healthy mice; 80 mg/kg ShSPI, n = 6): 120.33 ± 6.83 g/L | Lym (ICR healthy mice; 80 mg/kg ShSPI, n = 6): 4.66 ± 1.68 10^9/L | Lym% (ICR healthy mice; 80 mg/kg ShSPI, n = 6): 68.93 ± 6.78% | MCH (ICR healthy mice; 80 mg/kg ShSPI, n = 6): 16.08 ± 0.40 pg | MCHC (ICR healthy mice; 80 mg/kg ShSPI, n = 6): 335.33 ± 6.28 g/L | MCV (ICR healthy mice; 80 mg/kg ShSPI, n = 6): 47.95 ± 0.38 fL | MPV (ICR healthy mice; 80 mg/kg ShSPI, n = 6): 5.48 ± 0.48 fL | Mon (ICR healthy mice; 80 mg/kg ShSPI, n = 6): 0.38 ± 0.05 10^9/L | Neu (ICR healthy mice; 80 mg/kg ShSPI, n = 6): 1.35 ± 0.40 10^9/L | Neu% (ICR healthy mice; 80 mg/kg ShSPI, n = 6): 21.23 ± 5.92% | PCT (ICR healthy mice; 80 mg/kg ShSPI, n = 6): 0.69 ± 0.09% | PDW (ICR healthy mice; 80 mg/kg ShSPI, n = 6): 15.33 ± 0.10 | PLT (ICR healthy mice; 80 mg/kg ShSPI, n = 6): 1272 ± 206.81 10^9/L | RBC (ICR healthy mice; 80 mg/kg ShSPI, n = 6): 7.49 ± 0.34 10^12/L | RDW-CV (ICR healthy mice; 80 mg/kg ShSPI, n = 6): 12.18 ± 0.22% | RDW-SD (ICR healthy mice; 80 mg/kg ShSPI, n = 6): 25.75 ± 1.03 fL | WBC (ICR healthy mice; 80 mg/kg ShSPI, n = 6): 6.66 ± 2.04 10^9/L | Mon% (ICR healthy mice; 80 mg/kg ShSPI, n = 6, * p < 0.05 vs blank control): 6.16 ± 1.76 * % | Bas (ICR healthy mice; 160 mg/kg ShSPI, n = 6): 0.02 ± 0.01 10^9/L | Bas% (ICR healthy mice; 160 mg/kg ShSPI, n = 6): 0.20 ± 0.12% | Eos (ICR healthy mice; 160 mg/kg ShSPI, n = 6): 0.21 ± 0.19 10^9/L | Eos% (ICR healthy mice; 160 mg/kg ShSPI, n = 6): 1.85 ± 1.23% | HCT (ICR healthy mice; 160 mg/kg ShSPI, n = 6): 37.81 ± 1.30% | HGB (ICR healthy mice; 160 mg/kg ShSPI, n = 6): 126.66 ± 4.36 g/L | Lym (ICR healthy mice; 160 mg/kg ShSPI, n = 6): 8.63 ± 2.79 10^9/L | Lym% (ICR healthy mice; 160 mg/kg ShSPI, n = 6): 75.90 ± 6.54% | MCH (ICR healthy mice; 160 mg/kg ShSPI, n = 6): 16.05 ± 0.40 pg | MCHC (ICR healthy mice; 160 mg/kg ShSPI, n = 6): 335.33 ± 4.13 g/L | MCV (ICR healthy mice; 160 mg/kg ShSPI, n = 6): 47.86 ± 65 fL | MPV (ICR healthy mice; 160 mg/kg ShSPI, n = 6): 5.21 ± 0.21 fL | Mon (ICR healthy mice; 160 mg/kg ShSPI, n = 6): 0.42 ± 0.21 10^9/L | Mon% (ICR healthy mice; 160 mg/kg ShSPI, n = 6): 3.58 ± 0.74% | Neu (ICR healthy mice; 160 mg/kg ShSPI, n = 6): 2.23 ± 1.28 10^9/L | Neu% (ICR healthy mice; 160 mg/kg ShSPI, n = 6): 18.46 ± 5.30% | PCT (ICR healthy mice; 160 mg/kg ShSPI, n = 6): 0.78 ± 0.07% | PDW (ICR healthy mice; 160 mg/kg ShSPI, n = 6): 15.21 ± 0.07 | PLT (ICR healthy mice; 160 mg/kg ShSPI, n = 6): 1511.2 ± 178.44 10^9/L | RBC (ICR healthy mice; 160 mg/kg ShSPI, n = 6): 7.90 ± 0.31 10^12/L | RDW-CV (ICR healthy mice; 160 mg/kg ShSPI, n = 6): 12.83 ± 0.74% | RDW-SD (ICR healthy mice; 160 mg/kg ShSPI, n = 6): 27.20 ± 1.81 fL | WBC (ICR healthy mice; 160 mg/kg ShSPI, n = 6): 11.5 ± 4.13 10^9/L
